According to PubChem BioAssay (NCI):
Several values for one entry are separate records, joined by “and”; a condition that tells them apart may be missing. Equal entries are not always repeated.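 Each compound was tested at five concentrations against cells in 96-well plates for 48 hours. Here, GI50 denotes the concentration required for 50% inhibition of growth. Definition used: TGI = concentration required for complete inhibition of growth.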

The compounds below were run on MDA-MB-468 breast (assay: DTP human tumour cell line panel, 48 h).
Work on `S=P(N1CC1)(N1CC1)N1CC1` yielded a GI50 of 23.7 µM and a TGI of 170 µM.
Work on `O=C1C[C@@H]2/C(=C(O)\C=C\c3ccccc3)C(=O)C=C[C@@H]2O1` yielded a GI50 of 1.58 µM and a TGI of 3.21 µM.
Work on `N#C/C(=C\c1ccc(Br)cc1)n1nnc2ccc(F)cc21` yielded a GI50 of 0.271 µM and a TGI of 0.867 µM.
Compound `Cn1cc(-c2ccc(-c3ccc(C4=NC5(CC5)C(=O)N4C[C@@H]4CCN(C(=O)C5CC5)C4)cc3)cc2)cn1` has a GI50 of 16.9 µM and a TGI of 40.1 µM.
`COc1cc(Nc2ncc(F)c(Nc3ccc4c(n3)N(COP(=O)(O)O)C(=O)C(C)(C)O4)n2)cc(OC)c1OC` was tested, and the GI50 was 1.55 µM and 1.65 µM and the TGI was 4.74 µM and 5.42 µM.
In the case of `C=C1CC2(OC1=O)C(=O)Nc1ccccc12` (configuration not stated), the GI50 is reported as 0.854 µM and the TGI is reported as 2.7 µM.
Work on `O=C1CCc2c(sc3[nH]c(=S)n(Cc4ccc(Cl)cc4)c(=O)c23)C1` yielded a GI50 of 0.299 µM and a TGI of 1.21 µM.
`CCN1CCN(CC(=O)N2c3cccc4cccc(c34)N(C(=O)CN3CCN(CC)CC3)C2c2cn(-c3ccccc3)nc2-c2cccc([N+](=O)[O-])c2)CC1` was tested, and the GI50 was 1.26 µM and the TGI was 2.76 µM.
`COc1cc(-c2nc(SCCC(C)C)nc(Nc3ccc(S(N)(=O)=O)cc3)c2C#N)cc(OC)c1OC` was tested, and the GI50 was 3.07 µM and the TGI was 9.96 µM.
Compound `Cc1ncc(C(=O)Nc2ccc(CN3CCN(C)CC3)c(C(F)(F)F)c2)cc1C#Cc1cnc(N)cc1C#N` has a GI50 of 1.29 µM and a TGI of 3.78 µM.
With `OC(c1cc(C23CC4CC(CC(C4)C2)C3)nc2c(Cl)cc(Cl)cc12)C1CCCCN1` (configuration not stated) the GI50 was 1.48 µM and the TGI was 2.81 µM.
`COc1ccc(-c2ccc(-c3ccc(C(=N)N)o3)o2)cc1` was tested, and the GI50 was 0.864 µM and the TGI was 2.84 µM.
For `C[N+]1=C(/C=C\C=C\c2ccccc2)C(C)(C)c2ccccc21`, the GI50 was 0.636 µM and the TGI was 4.55 µM.
With `CCN(CC)c1ccc(C(=O)c2ccc(N(CC)CC)cc2)cc1` the GI50 was 0.298 µM and the TGI was 1.66 µM.
For `O=C1C(=O)c2cccnc2-c2ncccc21`, the GI50 was 0.193 µM and the TGI was 0.491 µM.
`Cc1cn(-c2cc(NC(=O)c3ccc(C)c(Nc4nccc(-c5cccnc5)n4)c3)cc(C(F)(F)F)c2)cn1` was tested, and the GI50 was 1.8 µM and 1.75 µM and the TGI was 4.06 µM and 8.39 µM.
In the case of `C=C1C(=O)O[C@H]2[C@H]1CC/C(Cn1cc(-c3ccccc3C(F)(F)F)nn1)=C\CC[C@@]1(C)O[C@@H]21`, the GI50 is reported as 1.14 µM and the TGI is reported as 2.8 µM.
`COC(=O)[C@@H](C)C[C@H](Cc1ccccc1)NC(=O)c1csc([C@@H](C[C@H](C(C)C)N(C)C(=O)[C@@H](NC(=O)[C@H]2CCCCN2C)C2CC2)OC(C)=O)n1` was tested, and the TGI was > 16.5 µM.
Compound `CN(C)c1ccc(/C=C/c2cc[n+](C)c(/C=C/c3ccc(N(C)C)cc3)c2)cc1` has a GI50 of 0.0969 µM and a TGI of 0.537 µM.
In the case of `Cc1cnc(C(=O)Nc2nc3ccc(S(=O)(=O)Nc4ccc(C5(C(F)(F)F)CC5)cc4)cc3[nH]2)cn1`, the GI50 is reported as 0.224 µM and the TGI is reported as 1.98 µM.
`COc1cc(C2CC(c3ccc(Nc4ccnc5cc(Cl)ccc45)cc3)=NN2c2ccc(Cl)cc2)cc(OC)c1OC` (configuration not stated) was tested, and the GI50 was 0.908 µM and the TGI was 9.67 µM.
Work on `O=C(OC[C@H]1O[C@H](OC(=O)c2cc(O)c(O)c(OC(=O)c3cc(O)c(O)c(O)c3)c2)[C@H](OC(=O)c2cc(O)c(O)c(OC(=O)c3cc(O)c(O)c(O)c3)c2)[C@@H](OC(=O)c2cc(O)c(O)c(OC(=O)c3cc(O)c(O)c(O)c3)c2)[C@@H]1OC(=O)c1cc(O)c(O)c(OC(=O)c2cc(O)c(O)c(O)c2)c1)c1cc(O)c(O)c(OC(=O)c2cc(O)c(O)c(O)c2)c1` yielded a GI50 of 4.75 µM and a TGI of 17.8 µM.
With `Cc1cnc(C(=O)NNc2nc3sc4c(c3c(=O)n2C)C(C)CCC4)cn1` (configuration not stated) the GI50 was 0.278 µM and the TGI was 1.07 µM.
`O=C(/C=C/c1ccc(C(F)(F)F)cc1)c1ccc(Nc2nc(NCCO)nc(Nc3ccc(Cl)cc3)n2)cc1` showed a GI50 of 5.54 µM and a TGI of 21.3 µM.
Work on `O=C1C(Cl)=C(NCc2ccco2)C(=O)c2ccccc21` yielded a GI50 of 3.71 µM and a TGI of 22 µM.
Compound `Cc1ccc(Cl)cc1NC(=O)c1sc2nc3c(cc2c1N)C(=O)CCC3` has a GI50 of 2.74 µM and a TGI of 8.76 µM.
Compound `CCNC(=O)O[C@H]1CN[C@H](C#Cc2cc3ncnc(Nc4ccc(OCc5cccc(F)c5)c(Cl)c4)c3s2)C1` has a GI50 of 0.155 µM and a TGI of 1.92 µM.
`CCOC(=O)c1c2c(n3ccccc13)C(=O)c1ncccc1C2=O` gave a GI50 of 2.77 µM and a TGI of 12 µM.
`Cc1cc(N2CCOCC2)cc2[nH]c(-c3c(NC[C@@H](O)c4cccc(Cl)c4)cc[nH]c3=O)nc12` was tested, and the GI50 was 3.65 µM and the TGI was 14 µM.
